This note sets out measurements from patent publication US20200071316A1, “ACTIVATORS OF THE RETINOIC ACID INDUCIBLE GENE "RIG-I" PATHWAY AND METHODS OF USE THEREOF” (Kineta Immuno-Oncology LLC, priority 2018, published 2020).

Marks after values point to notes of the source that are not given here.

The test system of experiment [1] is CXCL10 secretion by CT26 cells. The experiment in a line: RIG-I dependent CXCL10 secretion by CT26 colon carcinoma cells (ELISA). In kind it is cell-based, murine. The following applies: 24 h. In a few lines:
(§1)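 Murine CT26 colon carcinoma cells, and CRISPR-generated RIG-I knockout CT26 cells, were seeded at 1×10^4 cells/well and grown 24 h at 37 °C, 5% CO2, then treated with compounds at 5 to 20 μM. CXCL10 in supernatants was measured by ELISA 24 h after stimulation.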

In experiment [2] the test system is THP1-Lucia ISG IRF3 −/− cells. The experiment in a line: IRF3-deficient THP1-Lucia ISG IRF3 −/− reporter assay (counter-screen). In kind it is cell-based. The conditions noted are these: Homo sapiens, 18 h after stimulation, read-out: THP1 ISG IRF3 −/−: fold increase of luciferase activity over background; for fold induction at 10 µM: 10 μM compound; for fold induction at 5 µM: 5 μM compound (**). The method, boiled down: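 PMA-differentiated (100 ng/ml) reporter cells carrying ISRE/ISG54 minimal promoter-driven secreted luciferase were stimulated with compounds at 5–20 μM (mostly 10 μM). Luciferase measured 18 h later and expressed as fold increase over untreated background, binned from "−" (<2.4-fold) to "+++++" (≥40-fold).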

The subject of experiment [3] is RIG-I deficient CT26 RIG-1−/− cells. The experiment in a line: CXCL10 secretion in RIG-I deficient CT26 RIG-1−/− cells (ELISA). In kind it is cell-based, murine. The conditions noted are these: 24 h. The method, boiled down: as §1
(An ELISA detects its analyte on a solid surface through an enzyme-linked reagent.)

Experiment [4] relates to IRF3 signaling pathway (IRF-inducible ISG54 promotor) in THP1-Lucia ISG cells. The experiment in a line: THP1-Lucia ISG reporter assay: induction of IRF3-dependent luciferase activity. The conditions noted are these: Homo sapiens, PMA-differentiated cells, 18 h after stimulation, read-out: THP1 ISG: fold increase of IRF3-dependent luciferase activity over background; for fold induction at 10 µM: 10 μM compound; for fold induction at 5 µM: 5 μM compound (**). In kind it is cell-based. The method, boiled down: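 PMA-differentiated (100 ng/ml) reporter cells, parental and IRF3−/−, stimulated with compounds at 5–20 μM (mostly 10 μM). Secreted luciferase measured 18 h later. Scored as fold increase over untreated background in bands from "−" (<2.4-fold) to "+++++" (≥40-fold).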

As to `O=C(Nc1nc2ccc(OCC(F)(F)F)cc2s1)c1cc2ccccc2cc1OCCCCN1CCOCC1` [Example 58, 3-[4-(morpholin-4-yl)butoxy]-N-[6-(2,2,2-trifluoroethoxy)-1,3-benzothiazol-2-yl]naphthalene-2-carboxamide], in experiment [1] (10 μM compound), the “CXCL10 secretion by CT26 cells” value is “++ (“++” indicates 200-399 pg/mL)”. The fold induction at 10 µM in experiment [2] was less than 2.4; in experiment [4], 5 to 9.9. Moreover, in experiment [3] (10 μM compound), the “CXCL10 secretion by CT26 RIG-I −/− cells” value was “− (“−” indicates less than 100 pg/mL)”.
The like results for `O=C(Nc1nc2ccc(S(=O)(=O)N3CCC3)cc2s1)c1ccc(-c2ccccc2)cc1OCCCCN1CCOCC1` [Example 59] were, in that order, “+++ (“+++” indicates 400-799 pg/mL)”, less than 2.4, 10 to 19 and “− (“−” indicates less than 100 pg/mL)”.
Turning to `O=C(Nc1nc2ccc(S(=O)(=O)N3CCC3)cc2s1)c1ccc(-c2ccccc2)cc1OCCN1CCOCC1` [Example 60, N-[6-(azetidine-1-sulfonyl)-1,3-benzothiazol-2-yl]-3-[2-(morpholin-4-yl)ethoxy]-[1,1′-biphenyl]-4-carboxamide], the “CXCL10 secretion by CT26 cells” value in experiment [1] (10 μM compound) is “++++ (“++++” indicates 800 to 1599 pg/mL)”. The fold induction at 10 µM in experiment [2] is less than 2.4; in experiment [4], 20 to 39. Further, the “CXCL10 secretion by CT26 RIG-I −/− cells” value in experiment [3] (10 μM compound) was “− (“−” indicates less than 100 pg/mL)”.
On to `O=C(Nc1nc2ccc(S(=O)(=O)N3CCC3)cc2s1)c1cc2c(cc1OCCN1CCOCC1)OCO2` [Example 61, N-[6-(azetidine-1-sulfonyl)-1,3-benzothiazol-2-yl]-6-[2-(morpholin-4-yl)ethoxy]-2H-1,3-bezodioxole-5-carboxamide], for which, in experiment [1] (10 μM compound), the “CXCL10 secretion by CT26 cells” value was “++ (“++” indicates 200-399 pg/mL)”. For the same compound, the fold induction at 10 µM in experiment [2] was less than 2.4; in experiment [4], 5 to 9.9. In addition, in experiment [3] (10 μM compound), the “CXCL10 secretion by CT26 RIG-I −/− cells” value is “− (“−” indicates less than 100 pg/mL)”.
For the compound `O=C(Nc1nc2ccc(S(=O)(=O)N3CCC3)cc2s1)c1cc2ccsc2cc1OCCN1CCOCC1` [Example 62, N-[6-(azetidine-1-sulfonyl)-1,3-benzothiazol-2-yl]-6-[2-(morpholin-4-yl)ethoxy]-1-benzothiophene-5-carboxamide], the “CXCL10 secretion by CT26 cells” value in experiment [1] (10 μM compound) is “++++ (“++++” indicates 800 to 1599 pg/mL)”. For the same compound, the fold induction at 10 µM in experiment [2] is less than 2.4; in experiment [4], 20 to 39. For the same compound, the “CXCL10 secretion by CT26 RIG-I −/− cells” value in experiment [3] (10 μM compound) is on record as “− (“−” indicates less than 100 pg/mL)”.
The like results for `O=C(Nc1nc2ccc(S(=O)(=O)N3CCC3)cc2s1)c1cc2ccsc2cc1OCCCCN1CCOCC1` [Example 63, N-[6-(azetidine-1-sulfonyl)-1,3-benzothiazol-2-yl]-6-[4-(morpholin-4-yl)butoxy]-1-benzothiophene-5-carboxamide] were, in that order, “+ (“+” indicates 100-199 pg/mL)”, less than 2.4, 2.4 to 4.9 and “− (“−” indicates less than 100 pg/mL)”.
In the case of `O=C(Nc1nc2ccc(S(=O)(=O)N3CCC3)cc2s1)c1cc2c(cc1OCCCCN1CCOCC1)OCO2` [Example 64, N-[6-(azetidine-1-sulfonyl)-1,3-benzothiazol-2-yl]-6-[4-(morpholin-4-yl)butoxy]-2H-1,3-benzodioxole-5-carboxamide], in experiment [1] (10 μM compound), the “CXCL10 secretion by CT26 cells” value is given as “+++ (“+++” indicates 400-799 pg/mL)”. Further, the fold induction at 10 µM in experiment [2] was less than 2.4; in experiment [4], 10 to 19. Moreover, the “CXCL10 secretion by CT26 RIG-I −/− cells” value in experiment [3] (10 μM compound) was “− (“−” indicates less than 100 pg/mL)”.
On to `O=C(Nc1nc2ccc(S(=O)(=O)N3CC4(COC4)C3)cc2s1)c1cc2ccccc2cc1OCCN1CCOCC1` [Example 65, 3-[2-(morpholin-4-yl)ethoxy]-N-(6-{2-oxa-6-azaspiro[3.3]heptane-6-sulfonyl}-1,3-benzothiazol-2-yl)naphthalene-2-carboxamide], for which the “CXCL10 secretion by CT26 cells” value in experiment [1] (10 μM compound) is listed as “+ (“+” indicates 100-199 pg/mL)”. Also, the fold induction at 10 µM in experiment [2] is less than 2.4; in experiment [4] it was 2.4 to 4.9. Also, the “CXCL10 secretion by CT26 RIG-I −/− cells” value in experiment [3] (10 μM compound) was “− (“−” indicates less than 100 pg/mL)”.
Consider `COC(=O)c1ccc2nc(NC(=O)c3cc4ccccc4cc3OCCCCN3CCOCC3)sc2c1` [Example 66, methyl 2-{3-[4-(morpholin-4-yl)butoxy]naphthalene-2-amido}-1,3-benzothiazole-6-carboxylate], for which the “CXCL10 secretion by CT26 cells” value in experiment [1] (5 μM compound (**)) is “++** (“++” indicates 200-399 pg/mL)”. Further, the fold induction at 5 µM in experiment [2] is less than 2.4; in experiment [4], 5 to 9.9. In addition, the “CXCL10 secretion by CT26 RIG-I −/− cells” value in experiment [3] (5 μM compound (**)) is reported as “−** (“−” indicates less than 100 pg/mL)”.
Turning to `Cn1ccc2cc(OCCN3CCOCC3)c(C(=O)Nc3nc4ccc(S(=O)(=O)N5CCCC5)cc4s3)cc21` [Example 67, 1-methyl-5-[2-(morpholin-4-yl)ethoxy]-N-[6-(pyrrolidine-1-sulfonyl)-1,3-benzothiazol-2-yl]-1H-indole-6-carboxamide], in experiment [1] (10 μM compound), the “CXCL10 secretion by CT26 cells” value is given as “++++ (“++++” indicates 800 to 1599 pg/mL)”. The fold induction at 10 µM is less than 2.4 in experiment [2] and 20 to 39 in experiment [4]. In experiment [3] (10 μM compound), the “CXCL10 secretion by CT26 RIG-I −/− cells” value was “− (“−” indicates less than 100 pg/mL)”.
For `O=C(Nc1cc2ccc(S(=O)(=O)N3CCCC3)cc2s1)c1ccc(-c2ccccc2)cc1OCCCCN1CCOCC1` [Example 68, 3-[4-(morpholin-4-yl)butoxy]-N-[6-(pyrrolidine-1-sulfonyl)-1-benzothiophen-2-yl]-[1,1′-biphenyl]-4-carboxamide], in that order: “++++ (“++++” indicates 800 to 1599 pg/mL)”, less than 2.4, 20 to 39 and “− (“−” indicates less than 100 pg/mL)”.
Turning to `COC(=O)c1ccc2nc(NC(=O)c3cc4ccccc4cc3OCCN3CCOCC3)sc2c1` [Example 69, methyl 2-{3-[2-(morpholin-4-yl)ethoxy]naphthalene-2-amido}-1,3-benzothiazole-6-carboxylate], in experiment [1] (5 μM compound (**)), the “CXCL10 secretion by CT26 cells” value is given as “++** (“++” indicates 200-399 pg/mL)”. For the same compound, the fold induction at 5 µM is less than 2.4 in experiment [2] and 5 to 9.9 in experiment [4]. The “CXCL10 secretion by CT26 RIG-I −/− cells” value in experiment [3] (5 μM compound (**)) is “−** (“−” indicates less than 100 pg/mL)”.
For `O=C(Nc1cc2ccc(S(=O)(=O)N3CCCC3)cc2s1)c1cc2ccccc2cc1OCCCCN1CCOCC1` [Example 70, 3-[4-(morpholin-4-yl)butoxy]-N-[6-(pyrrolidine-1-sulfonyl)-1-benzothiophen-2-yl]naphthalene-2-carboxamide], the “CXCL10 secretion by CT26 cells” value in experiment [1] (10 μM compound) is on record as “+++ (“+++” indicates 400-799 pg/mL)”. Moreover, the fold induction at 10 µM was less than 2.4 in experiment [2] and 10 to 19 in experiment [4]. For the same compound, in experiment [3] (10 μM compound), the “CXCL10 secretion by CT26 RIG-I −/− cells” value is recorded as “− (“−” indicates less than 100 pg/mL)”.
The like results for `O=C(Nc1cc2ccc(S(=O)(=O)N3CCCC3)cc2s1)c1ccc(-c2ccccc2)cc1OCCN1CCOCC1` [Example 71, 3-[2-(morpholin-4-yl)ethoxy]-N-[6-(pyrrolidine-1-sulfonyl)-1-benzothiophen-2-yl]-[1,1′-biphenyl]-4-carboxamide] were, in that order, “− (“−” indicates less than 100 pg/mL)”, less than 2.4, less than 2.4 and “− (“−” indicates less than 100 pg/mL)”.
For `O=C(Nc1cc2ccc(S(=O)(=O)N3CCCC3)cc2s1)c1cc2ccsc2cc1OCCCCN1CCOCC1` [Example 72, 6-[4-(morpholin-4-yl)butoxy]-N-[6-(pyrrolidine-1-sulfonyl)-1-benzothiophen-2-yl]-1-benzothiophene-5-carboxamide], in that order: “++++ (“++++” indicates 800 to 1599 pg/mL)”, less than 2.4, 20 to 39 and “− (“−” indicates less than 100 pg/mL)”.
For the compound `O=C(Nc1cc2ccc(S(=O)(=O)N3CCCC3)cc2s1)c1cc2c(cc1OCCCCN1CCOCC1)OCO2` [Example 73, 6-[4-(morpholin-4-yl)butoxy]-N-[6-(pyrrolidine-1-sulfonyl)-1-benzothiophen-2-yl]-2H-1,3-benzodioxole-5-carboxamide], the “CXCL10 secretion by CT26 cells” value in experiment [1] (10 μM compound) is listed as “++++ (“++++” indicates 800 to 1599 pg/mL)”. The fold induction at 10 µM is less than 2.4 in experiment [2] and 20 to 39 in experiment [4]. In experiment [3] (10 μM compound), the “CXCL10 secretion by CT26 RIG-I −/− cells” value is reported as “− (“−” indicates less than 100 pg/mL)”.
For `O=C(Nc1cc2ccc(S(=O)(=O)N3CCCC3)cc2s1)c1cc2ccccc2cc1OCCN1CCOCC1` [Example 74, 3-[2-(morpholin-4-yl)ethoxy]-N-[6-(pyrrolidine-1-sulfonyl)-1-benzothiophen-2-yl]naphthalene-2-carboxamide], the “CXCL10 secretion by CT26 cells” value in experiment [1] (10 μM compound) is on record as “+++ (“+++” indicates 400-799 pg/mL)”. Further, the fold induction at 10 µM in experiment [2] is less than 2.4; in experiment [4], 10 to 19. Besides, the “CXCL10 secretion by CT26 RIG-I −/− cells” value in experiment [3] (10 μM compound) is “− (“−” indicates less than 100 pg/mL)”.
